Experimental data published in publication PMC6910976 (ACS infectious diseases, 2019).

Key:
Experiment in all cases: UPLC-high resolution MS of intact protein
Format in all cases: binding
Conditions in all cases: covalent; 2 uM enzyme, 50 uM drug, 25 mM Tris pH 8.0, 5 h, 20 °C
LdtB = target: T1, LdtB (Mycolicibacterium smegmatis, UniProt A0R1G6)
T1 sequence (A0R1G6 27-400): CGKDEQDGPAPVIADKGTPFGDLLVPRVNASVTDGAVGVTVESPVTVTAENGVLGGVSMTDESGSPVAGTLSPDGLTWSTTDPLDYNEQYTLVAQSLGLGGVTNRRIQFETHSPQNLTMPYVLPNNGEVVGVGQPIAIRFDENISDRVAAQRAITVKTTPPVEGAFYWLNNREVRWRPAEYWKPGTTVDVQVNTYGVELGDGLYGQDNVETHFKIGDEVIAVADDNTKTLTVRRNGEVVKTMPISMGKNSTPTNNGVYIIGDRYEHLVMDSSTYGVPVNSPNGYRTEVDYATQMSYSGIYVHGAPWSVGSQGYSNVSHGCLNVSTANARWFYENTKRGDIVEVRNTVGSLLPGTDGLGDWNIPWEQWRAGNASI

LdtA = target: T2, LdtA (Mycolicibacterium smegmatis, UniProt A0QY44)
T2 sequence (A0QY44 41-259): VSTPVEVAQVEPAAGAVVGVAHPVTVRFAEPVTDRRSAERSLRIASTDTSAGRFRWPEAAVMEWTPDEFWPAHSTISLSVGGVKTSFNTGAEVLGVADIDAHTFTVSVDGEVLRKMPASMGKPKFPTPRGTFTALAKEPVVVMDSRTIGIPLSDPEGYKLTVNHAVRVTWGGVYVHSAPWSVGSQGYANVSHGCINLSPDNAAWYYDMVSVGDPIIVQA

LdtF = target: T3, LdtF (Mycolicibacterium smegmatis, UniProt A0QS24)
T3 sequence (A0QS24 31-420): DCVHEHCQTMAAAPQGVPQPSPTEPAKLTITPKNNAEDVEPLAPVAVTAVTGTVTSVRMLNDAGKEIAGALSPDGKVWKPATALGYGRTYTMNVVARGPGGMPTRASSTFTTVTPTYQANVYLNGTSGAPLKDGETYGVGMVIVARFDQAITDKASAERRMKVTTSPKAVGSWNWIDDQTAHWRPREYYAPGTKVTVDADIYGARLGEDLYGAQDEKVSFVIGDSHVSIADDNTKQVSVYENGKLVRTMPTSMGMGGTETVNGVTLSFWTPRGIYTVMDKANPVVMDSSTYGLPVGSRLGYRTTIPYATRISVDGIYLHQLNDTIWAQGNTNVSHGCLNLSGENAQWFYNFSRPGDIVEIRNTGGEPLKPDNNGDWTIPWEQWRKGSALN

| SMILES | UPLC-high resolution MS of intact protein (LdtB) | UPLC-high resolution MS of intact protein (LdtA) | UPLC-high resolution MS of intact protein (LdtF) |
| --- | --- | --- | --- |
| C[C@@H](O)[C@H]1C(=O)N2C(C(=O)[O-])=C(SC3Cn4cnc[n+]4C3)[C@H](C)[C@H]12 (stereo partly shown) [biapenem] | fully acylated by the (carba)penems faropenem, biapenem, doripenem, and meropenem | fully acylated by the (carba)penems faropenem, biapenem, doripenem, and meropenem | small amounts of apo-LdtF remained following incubation with biapenem, doripenem, and faropenem |
| C[C@@H](O)[C@H]1C(=O)N2C(C(=O)O)=C(S[C@@H]3CN[C@H](C(=O)N(C)C)C3)[C@H](C)[C@H]12 [meropenem] | fully acylated by the (carba)penems faropenem, biapenem, doripenem, and meropenem | fully acylated by the (carba)penems faropenem, biapenem, doripenem, and meropenem | only meropenem completely acylates LdtF under the same conditions |
| C[C@@H](O)[C@H]1C(=O)N2C(C(=O)O)=C([C@H]3CCCO3)S[C@H]12 [faropenem] | fully acylated by the (carba)penems faropenem, biapenem, doripenem, and meropenem | fully acylated by the (carba)penems faropenem, biapenem, doripenem, and meropenem | small amounts of apo-LdtF remained following incubation with biapenem, doripenem, and faropenem |
| C[C@@H](O)[C@H]1C(=O)N2C(C(=O)O)=C(S[C@@H]3CN[C@H](CNS(N)(=O)=O)C3)[C@H](C)[C@H]12 [doripenem] |  |  | small amounts of apo-LdtF remained following incubation with biapenem, doripenem, and faropenem |
